# According to patent EP2891491A1, “Use of (r)-phenylpiracetam for the treatment of sleep disorders” (Merz Pharma GmbH & Co. KGaA, priority 2014, dated 2015):
# Assays:
# rats = assay: motivation tests: progressive ratio task, cost-benefit choice test, consumption test; type: in vivo
# Procedure: EXAMPLE 6: Effect of (R)-phenylpiracetam in motivation tests - Figs. 5, 6, 7, 8
# Methylphenidate purchased from Sigma (Taufkirchen, Germany) was dissolved in distilled water fresh for each test day. D-Amphetamine purchased from Sigma (Taufkirchen, Germany) was dissolved in 0.9% sterile NaCl solution fresh for each test day. (R)-Phenylpiracetam was dissolved in distilled water fresh for each test day.
# One hundred and three male Sprague-Dawley rats (Janvier, Le Genest-St-Isle, France) weighing 225-250 g on arrival were used.
# The animals were kept under standard laboratory conditions in groups of up to 4 per care with ad libitum access to water. Standard diet for rodents (Altromin) was available to the animals at 15 g per animal/day
# For each test described below, two independent experiments were performed using an identical protocol. After continuous reinforcement training (CRF) training (see below) all animals were assigned to treatment groups, such that performance across all the groups was similar. The treatment groups were evenly distributed throughout the caging system.
# In experiment 1 and 2 the following protocols were used:
# Overview: Three tests were performed in a consecutive manner on subsequent days. On day 1-2, animals were habituated individually to Skinner boxes in two sessions, one per day, for 30 min. Animals received "free" food pellets at a random time (one pellet per minute on average). On days 3-8 animals were trained in Skinner boxes on a continuous reinforcement schedule (one pellet per lever press). On days 9-10 they were tested in the progressive ratio test (Test 1) off-drug, on days 11-12 on-drug. On day 13, a choice test (Test 2) was performed on-drug, on day 14, a consumption test (Test 3) was performed on-drug. Below, tests are described in detail.
# Behavioral testing was conducted in 12 operant test chambers (Med Associates, St. Albans, USA). Each chamber was equipped with a retractable lever, a food dispenser with receptacle, an overhead house light and two stimulus lights, one above the lever and the other above the food receptacle. An infrared photocell beam detected nose pokes into the food receptacle. The apparatus was controlled by a computer system (SmartControl®-Interface and MedPC-software, Med Associates, St. Albans, USA). The light above the food receptacle indicated the delivery of a food pellet in the receptacle. Rats were first habituated to the operant boxes for two sessions (30 min each) on two consecutive days. Thereafter, animals were trained for six sessions on the CRF schedule for 30 min. Followed by 4 sessions (two session off-drug followed by two sessions on-drug) of an increasing fixed ratio (FR) schedule in steps of 5, with 3 repetitions of each step (i.e. 1-1-1; 5-5-5; 10-10-10; ...). When the required FR value of each trial was achieved the light above the food receptacle indicated the delivery of a single food pellet (45 mg, Bioserve, USA). The light remained on until the rat poked its nose in the receptacle. Lever presses while the light was on were counted as perseverative lever presses; they were counted but had no programmed consequences. […] For each session, the value of the last completed ratio (breaking point) was recorded as well as the amount of received rewards, the perseverative lever presses, the duration of the session and the latency to respond. Animals of all treatment groups received respective vehicle/drug infusions 30 min pre-test on the final two sessions involving testing under a PR schedule.
# In this task the rats had the choice between working for their preferred food (Bioserve pellets) by pressing the lever on a PR schedule as described above or obtaining lab chow being freely available in a dish (about 15 g) within the operant chamber. The food receptacle and the lever were positioned on the same wall of the operant chamber, the dish containing the lab chow was situated in a corner on the opposite side of the operant chamber. […]
# [1] = just slightly stronger with (R)- than with (S)-phenylpiracetam; cited from earlier work
# [2] = tested on: extracellular dopamine levels in rat striatum; assay: brain microdialysis: extracellular dopamine levels in rat striatum; type: in vivo, rats; details: 100 mg/kg i.p.
# Procedure: EXAMPLE 2: Assessment of (R)-phenylpiracetam on extracellular dopamine levels in rat striatum using brain microdialysis - Fig. 1
# (R)-Phenylpiracetam was dissolved in saline and injected intraperitoneally (i.p).
# Adult male Sprague-Dawley rats (n = 5, ∼300 g; Harlan, The Netherlands) were used for the experiments. After surgery animals were housed individually (cages 30 cm x 30 cm x 40 cm) with food and water was ad libitum available at standard conditions. The post-surgery interval for recovery was minimally 48 h.
# Rats were anesthetized using isoflurane (2%, 800 ml/min O2), and placed in a stereotaxic frame (Kopf instruments, USA). […]
# Concentrations of DA and DOPAC were determined in the same sample, by HPLC separation and electrochemical detection. DA and DOPAC were detected electrochemically using a potentiostate (Antec Leyden, model Intro, the Netherlands) fitted with a glassy carbon electrode set at +500 mV vs. Ag/AgCl (Antec Leyden, the Netherlands). Data was analyzed by Chromatography Data System (Shimadzu, class-vp, Japan) software. Concentrations were quantified by the external standard method.
# After transmitter levels were stabilized, four consecutive pre-treatment microdialysis samples with less than 50% variation were taken as baseline and their mean was set at 100%. […] Transmitter concentration in each fraction was expressed as % ± SEM (standard error mean) of baseline.
smiles,measurement,setting,value
NC(=O)CN1C[C@@H](c2ccccc2)CC1=O [(R)-phenylpiracetam],consumption of freely available normal food,rats; cost-benefit choice test,does not increase
same,"motivation, i.e. the work load animals are willing to perform to obtain more rewarding food",rats; drug 30 min pre-test,increases motivation
same,effect on motivation compared with methylphenidate and amphetamine,rats; progressive ratio and cost benefit tests,much stronger than that of methylphenidate and amphetamine
same,locomotor activity in the open-field test,[1],significant increase
same,concentration of dopamine in the striatum,[2],increases extracellular dopamine levels
